Converted amounts (≈) assume the structure as drawn.
Legend:
[1] = cited from earlier work
[2] = Solubility / saturation point of rapamycin in solvents; format: physicochemical; settings: xylene at 20° C.
Method: Rapamycin has a molecular weight of 914.17 g/mol and molecular formula: C51H79NO13 (see also FIG. 1). It is insoluble in water, but soluble in ethanol (2 mM), methanol (25 mg/mL), DMSO (25 mg/mL), chloroform, (5 mg/mL), ether, acetone and N,N-dimethylformamide. As commercially supplied, rapamycin exists as one isomer (structurally homogeneous) in the solid form as indicated by X-rays whereas in solution there are two conformational isomers (approx. 4:1) which exist in equilibrium.
As a general matter, the macrolide therapeutic can be dissolved and/or dispersed in a desired amount in a solvent, or mixture of solvents, for forming the macrolide particulates. As a general matter, dependent on the solvent or solvent combination, as well as the macrolide being dissolved, it is understood in the composition that the macrolide can display a maximum solubility at a predetermined temperature, such as about 20° C. At the maximum solubility a solution can be referred to as “saturated.” The amount of macrolide dissolved can be described in conventional terms such as mg/mL, % (wt/vol), or molar. For example, the saturation point of rapamycin in many solvents is in the range of 15 mg/mL to 150 mg/mL. […]

CO[C@H]1C[C@@H]2CC[C@@H](C)[C@@](O)(O2)C(=O)C(=O)N2CCCC[C@H]2C(=O)O[C@H]([C@H](C)C[C@@H]2CC[C@@H](O)[C@H](OC)C2)CC(=O)[C@H](C)/C=C(\C)[C@@H](O)[C@@H](OC)C(=O)[C@H](C)C[C@H](C)/C=C/C=C/C=C/1C [Rapamycin, rapamycin]
solubility in chloroform ([1]; chloroform): 5000 µg/mL (≈ 5.47 mM)
solubility in ethanol ([1]; ethanol): 2000 µM (≈ 1830 µg/mL)
solubility in ether, acetone and N,N-dimethylformamide ([1]; ether, acetone, N,N-dimethylformamide): soluble
solubility in water ([1]; water): insoluble
saturated solution concentration in xylene [2]: about 75 mg/mL

Source: patent publication US9770537B2, “Solvent methods for preparing crystalline macrolide particulates, compositions, and articles containing particulates” (SurModics, Inc., priority 2013, dated 2017)
